This is an account of results in patent US20240279221A1, “HETEROCYCLIC COMPOUNDS AND METHODS OF USE” (Schrödinger, Inc., priority 2021, published 2024).

A value given as a limit tells only on which side of the number the result lay.

The assay has as its target SOS1:KRAS (G12C) interaction (Homo sapiens (Human), UniProt Q07889). Kind of assay: SOS1-KRas(G12C) FRET Assay. Format: binding. The conditions noted are these: 0.5 nM His10-SOS1 (res. 564-1049), 2.5 nM GST-KRAS (res. 1-169, G12C); read-out: SOS-KRas(G12C) FRET IC50. The protocol: Inhibition of the SOS1:KRAS interaction was measured using purified GST-tagged KRAS (res. 1-169, G12C, purified based on Hillig, et al., Proc Natl Acad Sci USA (2019); 116(7):2551-2560) and recombinant His10-SOS1 (res. 564-1049; purified based on Hillig, et al.). The final assay was performed at 20 uL with 0.5 nM SOS1 protein and 2.5 nM KRAS protein in a buffer of PBS, 0.1% BSA, 5 mM MgCl2, 0.0025% Igepal, 100 mM KF, 5 mM DTT in a white 384 square well OptiPlate (PerkinElmer, Cat. 6007290). A 2× KRAS working solution was prepared in an assay buffer containing 5 nM GST-KRAS G12C and 2 nM anti-GST-Eu(K) (Cisbio, Cat. 61GSTKLA) and pre-incubated for 15 minutes at 25° C. Compounds were serially diluted in 100% DMSO from 2 mM (positive control, compound I-13, PCT Publ. No. WO2018/115380) or 20 mM and then diluted 1:20 in assay buffer before incubation with a solution of SOS1 protein mixed 1:5 with anti-6His-XL665 FRET donor (Cisbio, Cat. 61HISXL) for 15 minutes at 25° C. before addition of 2× KRAS working solution. The final DMSO concentration is 0.5%. Plates were incubated at RT for 2 hrs before the FRET signal was measured using Envision at emission 665 nm and 615 nm. FRET signal was converted to percentage of protein-protein interaction using the following equation:
[formula] • C: signal with compound treatment • P: signal for positive control (DMSO) • N: signal for negative control (no SOS1 added) • IC50 and Hill coefficients were obtained using Graph Pad Prism (Graph Pad software, Inc, USA) with non-linear regression analysis.

SOS1:KRAS (G12C) interaction, sequence (Q07889 564-1049, stated change not applied): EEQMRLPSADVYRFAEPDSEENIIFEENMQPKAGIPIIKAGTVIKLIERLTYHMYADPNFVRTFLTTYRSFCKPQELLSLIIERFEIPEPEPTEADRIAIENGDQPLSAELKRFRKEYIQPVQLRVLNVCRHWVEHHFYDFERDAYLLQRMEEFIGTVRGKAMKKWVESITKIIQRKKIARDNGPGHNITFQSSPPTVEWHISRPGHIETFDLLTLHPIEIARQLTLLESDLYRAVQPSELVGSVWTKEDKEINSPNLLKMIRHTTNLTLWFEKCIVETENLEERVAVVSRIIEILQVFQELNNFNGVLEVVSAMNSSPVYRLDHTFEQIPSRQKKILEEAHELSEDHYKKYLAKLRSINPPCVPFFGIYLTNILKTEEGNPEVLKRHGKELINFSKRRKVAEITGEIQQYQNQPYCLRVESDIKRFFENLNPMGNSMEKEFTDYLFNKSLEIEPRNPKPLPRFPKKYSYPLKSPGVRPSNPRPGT

As a reminder, the IC50 is the midpoint of a concentration-inhibition curve. As to `COc1c(=O)n([C@]2(C(F)(F)F)CCOC2)cc2c(N[C@H](C)c3cccc(C(F)F)c3F)nn(C)c(=O)c12` (single isomer, unassigned) [Example 158], the IC50 is 382 nM.

Consider `C[C@@H](Nc1nn(C)c(=O)c2cc(=O)n(C3CC3)cc12)c1ccc2c(c1)CCCC2` [Example 101, (R)-6-cyclopropyl-2-methyl-4-((1-(5,6,7,8-tetrahydronaphthalen-2-yl)ethyl)amino)-2,6-dihydropyrido[3,4-d]pyridazine-1,7-dione], for which the half-inhibitory concentration (IC50) is above 100000 nM.

Turning to `C[C@@H](Nc1nn(C)c(=O)c2cc(=O)n([C@@H]3CC34CC4)cc12)c1cccc(C(F)F)c1F` (single isomer, unassigned) [Example 128], the IC50 was 287 nM.

For `C[C@@H](Nc1nn(C)c(=O)c2cc(=O)n([C@@]3(C(F)(F)F)CCNC3)cc12)c1cccc(C(F)F)c1F` (single isomer, unassigned) [Example 96], the IC50 was determined as 29.2 nM.

Turning to `C[C@@H](Nc1nn(C)c(=O)c2c(O[C@H]3C[C@H](F)C3)c(=O)n(C3(C(F)F)CC3)cc12)c1cccc(C(F)F)c1F` [Example 89, 4-(((R)-1-(3-(difluoromethyl)-2-fluorophenyl)ethyl)amino)-6-(1-(difluoromethyl)cyclopropyl)-8-((1r,3R)-3-fluorocyclobutoxy)-2-methylpyrido[3,4-d]pyridazine-1,7(2H,6H)-dione], the IC50 amounted to 122 nM.

Turning to `C[C@@H](Nc1nn(C)c(=O)c2cc(=O)n(C3(CF)CC3)cc12)c1cccc(C(F)F)c1F` [Example 125, (R)-4-((1-(3-(difluoromethyl)-2-fluorophenyl)ethyl)amino)-6-(1-(fluoromethyl)cyclopropyl)-2-methylpyrido[3,4-d]pyridazine-1,7(2H,6H)-dione], the IC50 was 54.3 nM.

Turning to `C[C@@H](Nc1nn(C)c(=O)c2cc(=O)n([C@@H]3C[C@H]3c3cncc(F)c3)cc12)c1cccc(C(F)F)c1F` (single isomer, unassigned) [Example 94], the IC50 was 378 nM.

For the compound `CC(=O)N1CC[C@@](C)(n2cc3c(N[C@H](C)c4cccc(C(F)F)c4F)nn(C)c(=O)c3cc2=O)C1` (single isomer, unassigned) [Example 143], the IC50 is 7.8 nM.

For `C[C@H](Nc1nn(C)c(=O)c2cc(=O)n(C3CC3)cc12)c1cccc(C(F)(F)C(=O)N(C)C)c1F` [Example 105, (S)-2-(3-(1-((6-cyclopropyl-2-methyl-1,7-dioxo-1,2,6,7-tetrahydropyrido[3,4-d]pyridazin-4-yl)amino)ethyl)-2-fluorophenyl)-2,2-difluoro-N,N-dimethylacetamide], the IC50 was above 10000 nM.

`C[C@@H](Nc1nn(C)c(=O)c2cc(=O)n([C@]34C[C@H]3CN(C(=O)C3CC3)C4)cc12)c1cccc(C(F)F)c1F` (single isomer, unassigned) [Example 142]: the half-maximal inhibitory concentration (IC50) was 77.2 nM.

On to `CC(=O)N1CC[C@](n2cc3c(N[C@H](C)c4cccc5c4OCC5(F)F)nn(C)c(=O)c3cc2=O)(C(F)(F)F)C1` (single isomer, unassigned) [Example 171], for which the IC50 was 1740 nM.

Turning to `C[C@@H](Nc1nn(C)c(=O)c2cc(=O)n(C3(C)CN(C(=O)C4(F)CC4)C3)cc12)c1cccc(C(F)F)c1F` [Example 153, (R)-4-((1-(3-(difluoromethyl)-2-fluorophenyl)ethyl)amino)-6-(1-(1-fluorocyclopropane-1-carbonyl)-3-methylazetidin-3-yl)-2-methyl-2,6-dihydropyrido[3,4-d]pyridazine-1,7-dione], the IC50 came to 86.9 nM.

As for `C[C@H](Nc1nn(C)c(=O)c2cc(=O)n(C3CC3)cc12)c1cccc2sccc12` [Example 65, (S)-4-((1-(benzo[b]thiophen-4-yl)ethyl)amino)-6-cyclopropyl-2-methyl-2,6-dihydropyrido[3,4-d]pyridazine-1,7-dione], the IC50 was above 100000 nM.

Consider `C[C@@H](Nc1nn(C)c(=O)c2cc(=O)n(C3(C(F)F)CC3)cc12)c1cccc2c1OCCC2(F)F` [Example 180, (R)-4-((1-(4,4-difluorochroman-8-yl)ethyl)amino)-6-(1-(difluoromethyl)cyclopropyl)-2-methyl-2,6-dihydropyrido[3,4-d]pyridazine-1,7-dione], for which the IC50 was found to be 179 nM.

On to `C[C@H](Nc1nn(C)c(=O)c2cc(=O)n(C3(C(F)F)CC3)cc12)c1cccc2ccnn12` [Example 115, (S)-6-(1-(difluoromethyl)cyclopropyl)-2-methyl-4-((1-(pyrazolo[1,5-a]pyridin-7-yl)ethyl)amino)-2,6-dihydropyrido[3,4-d]pyridazine-1,7-dione], for which the IC50 is above 10000 nM.

For the compound `C[C@@H](Nc1nn(C)c(=O)c2cc(=O)n([C@H]3CCC(F)(F)C3)cc12)c1cccc(C(F)F)c1F` (single isomer, unassigned) [Example 121], the IC50 turned out to be 125 nM.

As to `Cn1nc(N[C@@H](c2cccc(C(F)(F)F)c2)C(F)F)c2cn(C3CC3)c(=O)cc2c1=O` [Example 111, (S)-6-cyclopropyl-4-((2,2-difluoro-1-(3-(trifluoromethyl)phenyl)ethyl)amino)-2-methylpyrido[3,4-d]pyridazine-1,7(2H,6H)-dione], the IC50 was determined as 631 nM.

As for `C[C@@H](Nc1nn(C)c(=O)c2cc(=O)n([C@@H]3C[C@H]3C3CC3)cc12)c1cccc(C(F)F)c1F` (single isomer, unassigned) [Example 136], the IC50 came to 185 nM.

Consider `C[C@@H](Nc1nn(C)c(=O)c2cc(=O)n(C3(C(F)F)CC3)cc12)c1cccc2c1OCC2(F)F` [Example 160, (R)-4-((1-(3,3-difluoro-2,3-dihydrobenzofuran-7-yl)ethyl)amino)-6-(1-(difluoromethyl)cyclopropyl)-2-methyl-2,6-dihydropyrido[3,4-d]pyridazine-1,7-dione], for which the IC50 turned out to be 36.7 nM.

As to `Cc1c([C@@H](C)Nc2nn(C)c(=O)c3cc(=O)n(C45COC(C)(C4)C5)cc23)cccc1C(F)(F)F` [Example 127, (R)-2-methyl-4-((1-(2-methyl-3-(trifluoromethyl)phenyl)ethyl)amino)-6-(1-methyl-2-oxabicyclo[2.1.1]hexan-4-yl)-2,6-dihydropyrido[3,4-d]pyridazine-1,7-dione], the IC50 came out at 90 nM.

For `C[C@@H](Nc1nn(C)c(=O)c2cc(=O)n([C@H]3CC34CC4)cc12)c1cccc(C(F)F)c1F` (single isomer, unassigned) [Example 129], the IC50 worked out at 112 nM.

On to `CC(=O)N1CC[C@@](n2cc3c(N[C@H](C)c4cccc5c4OCC5(F)F)nn(C)c(=O)c3cc2=O)(C(F)(F)F)C1` (single isomer, unassigned) [Example 170], for which the IC50 is 6.5 nM.

As for `C[C@@H](Nc1nn(C)c(=O)c2cc(=O)n(C3(C(F)F)CC3)cc12)c1cccc(C(F)(F)c2ccncc2)c1F` [Example 174, (R)-4-((1-(3-(difluoro(pyridin-4-yl)methyl)-2-fluorophenyl)ethyl)amino)-6-(1-(difluoromethyl)cyclopropyl)-2-methyl-2,6-dihydropyrido[3,4-d]pyridazine-1,7-dione], the IC50 came to 4.4 nM.

Regarding `Cc1c([C@@H](C)Nc2nn(C)c(=O)c3cc(=O)n([C@@H]4C[C@H]4c4cncc(F)c4)cc23)cccc1C(F)(F)F` (single isomer, unassigned) [Example 92], the IC50 is 567 nM.

As to `C[C@H](Nc1nn(C)c(=O)c2cc(=O)n(C3CC3)cc12)c1ccc2c(c1)CCCC2` [Example 102, (S)-6-cyclopropyl-2-methyl-4-((1-(5,6,7,8-tetrahydronaphthalen-2-yl)ethyl)amino)-2,6-dihydropyrido[3,4-d]pyridazine-1,7-dione], the IC50 stood at 3790 nM.

As for `C[C@@H](Nc1nn(C)c(=O)c2c(OCC3COC3)c(=O)n(C3(C(F)F)CC3)cc12)c1cccc(C(F)F)c1F` [Example 90, (R)-4-((1-(3-(difluoromethyl)-2-fluorophenyl)ethyl)amino)-6-(1-(difluoromethyl)cyclopropyl)-2-methyl-8-(oxetan-3-ylmethoxy)-2,6-dihydropyrido[3,4-d]pyridazine-1,7-dione], the IC50 stood at 59.7 nM.

Regarding `Cc1c([C@@H](C)Nc2nn(C)c(=O)c3cc(=O)n([C@H]4C[C@@H]4c4cncc(F)c4)cc23)cccc1C(F)(F)F` (single isomer, unassigned) [Example 91], the IC50 amounted to 97.4 nM.

For `C[C@@H](Nc1nn(C)c(=O)c2cc(=O)n([C@]3(C(F)(F)F)CCN(C)C3)cc12)c1cccc(C(F)F)c1F` (single isomer, unassigned) [Example 98], the IC50 stood at 989 nM.

With `C[C@@H](Nc1nn(C)c(=O)c2cc(=O)n([C@@]34C[C@@H]3CN(C(=O)C3CC3)C4)cc12)c1cccc(C(F)F)c1F` (single isomer, unassigned) [Example 141], the IC50 amounted to 25 nM.
